Laboratory results: PubChem BioAssay (NCI)
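Where inhibition never reached the appropriate level, the endpoint shown equals the highest concentration tested. Otherwise, values were interpolated linearly from a five-concentration, 48-hour dose response in 96-well plates. Abbreviation: GI50, concentration required for 50% inhibition of growth. The concentration for full growth arrest is given as TGI.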

Key:
Assay in all cases: NCI anticancer screen, dose series, 48 h
CAKI-1 renal = system: CAKI-1 renal
COLO 205 colon = system: COLO 205 colon
HCC-2998 colon = system: HCC-2998 colon
HS 578T breast = system: HS 578T breast
HT29 colon = system: HT29 colon
MDA-MB-435 = system: MDA-MB-435
SK-MEL-2 melanoma = system: SK-MEL-2 melanoma
SK-MEL-5 melanoma = system: SK-MEL-5 melanoma
SR leukemia = system: SR leukemia
UACC-62 melanoma = system: UACC-62 melanoma

| Compound | GI50 (CAKI-1 renal) | TGI (CAKI-1 renal) | GI50 (COLO 205 colon) | TGI (COLO 205 colon) | GI50 (HCC-2998 colon) | TGI (HCC-2998 colon) | GI50 (HS 578T breast) | TGI (HS 578T breast) | GI50 (HT29 colon) | TGI (HT29 colon) | GI50 (MDA-MB-435) | TGI (MDA-MB-435) | GI50 (SK-MEL-2 melanoma) | TGI (SK-MEL-2 melanoma) | GI50 (SK-MEL-5 melanoma) | TGI (SK-MEL-5 melanoma) | GI50 (SR leukemia) | TGI (SR leukemia) | GI50 (UACC-62 melanoma) | TGI (UACC-62 melanoma) |
| --- | --- | --- | --- | --- | --- | --- | --- | --- | --- | --- | --- | --- | --- | --- | --- | --- | --- | --- | --- | --- |
| O=S(=O)(NC1=NCCN1C(=S)SN1CCn2c1nsc2=S)c1ccccc1Cl | 12.3 µM | 41.6 µM | 15.1 µM | 55 µM | 15.9 µM | 29.5 µM | 29.6 µM | > 100 µM | 15.4 µM | > 100 µM | 8.67 µM | 29.2 µM | 16.9 µM | 40 µM | 15.8 µM | 31.1 µM | 0.469 µM | 3.31 µM | 19.3 µM | 44.1 µM |
| O=C(N/N=C/c1ccc(Cl)cc1Cl)c1ccc2nc(-c3ccc(Cl)cc3)[nH]c2c1 | 1.7 µM | 3.29 µM | 1.55 µM | 3.25 µM | 1.82 µM | 3.44 µM | 2.28 µM | 5.27 µM | 1.97 µM | 5.47 µM | 1.73 µM | 3.35 µM | 2.09 µM | 4.64 µM | 1.81 µM | 3.39 µM | 1.01 µM | 3.95 µM | 1.78 µM | 3.4 µM |
| COc1cc(NC(=O)NCc2ccco2)ccc1-c1ccc(NC(=O)NCc2ccco2)cc1OC | 10.1 µM | > 100 µM | 3.1 µM | > 100 µM | 7.97 µM | > 100 µM | 1.51 µM | 6.86 µM |  |  | 4.14 µM | > 100 µM |  |  | 0.93 µM | 21.4 µM | 0.458 µM | > 100 µM | 1.25 µM | 5.18 µM |
| CCc1ccc2nccc(NCCCN(C)C)c2c1[N+](=O)[O-] |  | > 100 µM |  | 94.1 µM |  | > 100 µM |  | > 100 µM |  | > 100 µM |  | > 100 µM |  | > 100 µM |  | > 100 µM |  | > 100 µM |  | > 100 µM |
| C[C@@H](COCCC(=O)N1CCN(c2ncc(C(F)(F)F)cn2)CC1)Nc1cn[nH]c(=O)c1C(F)(F)F | 14.1 µM | > 100 µM | 98.6 µM | > 100 µM | > 100 µM | > 100 µM | 50.7 µM | > 100 µM | > 100 µM | > 100 µM | > 100 µM | > 100 µM | > 100 µM | > 100 µM | 42.3 µM | > 100 µM | 4.04 µM | > 100 µM | 45.3 µM | > 100 µM |
| CCNNC(=O)[C@@H]1[C@H](c2cc(OC)c(OC)c(OC)c2)c2cc3c(cc2[C@H](O)[C@H]1CO)OCO3 | 0.596 µM | > 100 µM | 0.266 µM | 0.646 µM | 0.374 µM | > 22.2 µM | 0.376 µM | > 100 µM | 0.351 µM | 13 µM | 0.24 µM | 0.697 µM | 0.614 µM | > 100 µM | 0.236 µM | 0.635 µM | 0.315 µM | > 100 µM | 0.398 µM | > 100 µM |
| COc1cccc(CCC(=O)c2cc3c(N)c(C(=O)Nc4cccc(Cl)c4C)sc3nc2C)c1 | 0.535 µM | > 100 µM | 0.661 µM | > 45.9 µM | 2.18 µM | > 50.8 µM | 0.343 µM |  | 0.338 µM |  | 0.197 µM | 0.612 µM | 1.36 µM | > 100 µM | 0.65 µM | 11 µM | 0.431 µM | > 100 µM | 0.407 µM | > 100 µM |
| Nc1cc(S(N)(=O)=O)ccc1SSc1ccc(S(N)(=O)=O)cc1N |  | > 100 µM |  | > 100 µM |  | > 100 µM |  | > 100 µM |  | > 100 µM |  | > 100 µM |  | > 100 µM |  | > 100 µM |  | > 100 µM |  | > 100 µM |
| Nc1c(C(=O)N/N=C/c2ccc(-c3cc(Cl)c(Cl)cc3Cl)o2)cnn1-c1ccnc2c(C(F)(F)F)cccc12 | 4.21 µM | > 100 µM | 2.57 µM | 5.78 µM | 3.64 µM | > 100 µM | 5.04 µM | > 100 µM | 2.73 µM | 28 µM | 3.85 µM | > 100 µM | 5.31 µM | 34.3 µM | 3.74 µM | 14.6 µM | 4.53 µM | 72.9 µM | 3.94 µM | > 100 µM |
| O=c1oc2c3ccc4cnccc4c3[nH]c2c2ccccc12 | 47 µM | > 100 µM | 4.24 µM | 17.4 µM |  |  | 21.3 µM | > 100 µM | 10.5 µM | 37.2 µM | 18.1 µM | 34.2 µM | 18.8 µM | 54.8 µM | 8.01 µM | 22.2 µM | 1.78 µM | 4.19 µM | 17.6 µM | 42.1 µM |
| COC(=O)[C@H](C)NC(=O)[C@@H](OC)[C@@H]1Cc2cc3cc(OC4CC(OC5CC(O)C(O)C(C)O5)C(O)C(C)O4)c(C)c(O)c3c(O)c2C(=O)[C@H]1OC1CC(OC2CC(OC3CC(C)(O)C(O)C(C)O3)C(O)C(C)O2)C(O)C(C)O1 (some centres undefined) | 0.129 µM | 2.02 µM | 0.0934 µM | 1.09 µM | 0.16 µM | 2.08 µM | 0.0983 µM | 2.17 µM | 0.117 µM | > 50 µM | 0.0755 µM | 0.905 µM | 0.0908 µM | 0.588 µM | 0.0358 µM | 0.355 µM | 0.0271 µM | > 50 µM | 0.0417 µM | 0.171 µM |
| CCCCCCCCCCCCCCCCCCOc1ccccc1CC(=O)NCC[N+](C)(C)C | 4.39 µM | 36.7 µM |  |  | 3.15 µM | 21.9 µM | 4.26 µM | > 100 µM | 3.09 µM | 26.7 µM | 10.6 µM | 55.1 µM | 12.7 µM | 44.7 µM | 6.59 µM | 45.8 µM | 2.71 µM | > 100 µM | 6.55 µM | 62.5 µM |
| COc1ccc2c(c1)c(-c1ccc(-c3cn(C)c4ccc(OC)cc34)[nH]1)cn2C | 3.36 µM | 11.2 µM | 1.92 µM | 4.74 µM |  |  | 1.36 µM | 4.24 µM | 9.38 µM | 42 µM | 4.92 µM | 20.6 µM | 4 µM | 22.2 µM | 4.2 µM | 14.4 µM | 1.31 µM | 4.01 µM | 2.14 µM | 6.55 µM |
| OCC(CCc1c[nH]c2ccccc12)c1c[nH]c2ccccc12 (centres undefined) |  | 77.4 µM |  | 30.6 µM |  |  |  | 48.6 µM |  | 30.7 µM |  | 34.3 µM |  | 31.3 µM |  | 30.4 µM |  | 41.5 µM |  | 27 µM |
| Cc1cc(N(CCCNc2ccnc3cc(Cl)ccc23)Cc2ccc3c(c2)OCO3)nc(N2CCCCC2)n1 |  |  | 1.66 µM | 3.33 µM | 2.09 µM | 4.79 µM | 1.78 µM | 4.25 µM | 1.2 µM | 3.02 µM | 1.72 µM | 3.27 µM | 1.94 µM | 3.77 µM | 1.75 µM | 3.14 µM | 1.41 µM | 4.14 µM | 1.91 µM | 3.64 µM |
| CCC1(NC(=O)c2cc(F)c(F)c(F)c2F)C(=O)NC(=O)N(C(C)C)C1=O (centres undefined) | 29.8 µM | > 100 µM | 27.5 µM | > 100 µM | 1.94 µM | 3.97 µM | 12 µM | 37.2 µM | 22.6 µM | > 100 µM | 15.8 µM | 36.2 µM |  |  | 16.8 µM | 33 µM | 2.98 µM | 9.65 µM | 15.7 µM | 34.1 µM |
| N#Cc1nc2c(S(=O)(=O)c3ccccc3)c(N)n(Cc3ccc(Cl)cc3)c2nc1C#N | 26.7 µM | > 50 µM | 17.8 µM | > 50 µM | 3.6 µM | 10.8 µM | 7.08 µM | 23.4 µM |  |  | 19.4 µM | > 50 µM | 32.6 µM | > 50 µM | 11.5 µM | > 50 µM | 9.72 µM | > 50 µM | 7.51 µM | 18.1 µM |
| CN(C)CCCCn1ccc2c1C(=O)c1c(c(O)c3ccccc3c1O)C2=O | 4.02 µM | 17.5 µM | 7.05 µM | 21 µM |  |  | 33.1 µM | 60.9 µM | 5.53 µM | 18.4 µM | 2.01 µM | 3.71 µM |  |  |  |  | 4.36 µM | 23.6 µM |  |  |
| C=C1C(OC/C=C/COC2O[C@@H]3O[C@@]4(C)CC[C@H]5[C@H](C)CC[C@@H](C2=C)[C@@]35OO4)O[C@@H]2O[C@@]3(C)CC[C@H]4[C@H](C)CC[C@@H]1[C@@]24OO3 (some centres undefined) | 1.63 µM | 21.7 µM | 0.226 µM | 13.6 µM |  |  | 12.6 µM | 59.6 µM | 0.0438 µM | > 49.2 µM | 0.301 µM | 21.5 µM | 16 µM | > 100 µM | 3.58 µM | 27.3 µM | 0.0315 µM | 2.6 µM | 2.01 µM | 69.1 µM |
| Clc1ccc(CNc2nccc(-c3cnn4ncccc34)n2)cc1 | 5.62 µM | > 18.8 µM | 4.86 µM | 9.76 µM | 6.67 µM | 18.4 µM | 7.78 µM | > 23.5 µM | 6.46 µM | 21.1 µM | 6.3 µM | 20.6 µM | 5.25 µM | 11.5 µM | 5.4 µM | > 25 µM |  |  | 3.74 µM | 8.73 µM |
